Reference: paper PMC9228955, “Synthesis, Physicochemical, Labeling and In Vivo Characterization of ^44Sc-Labeled DO3AM-NI as a Hypoxia-Sensitive PET Probe” (Pharmaceuticals, 2022)

Tests used:
KB tumors [1] = test: Ex vivo biodistribution in KB tumor xenografts; set-up: species or system CB17 SCID mice; conditions: for KB tumor uptake: 13 ± 1 days after subcutaneous tumor induction, n = 5, mean ± SD
Protocol: For the assessment of the accumulation in the tumors of [^44Sc]Sc(DO3AM-NI) and [^68Ga]Ga(DO3AM-NI), ex vivo biodistribution studies were performed 90 and 240 min post injection using KB tumor xenografts.
(§1) For tumor induction, SCID mice were injected with 5x10^6 KB tumor cells in 0.9% NaCl (100 µL) subcutaneously into the left shoulder area. The tumor growth was assessed by caliper measurements, and tumor size was calculated using the following formula: (largest diameter × smallest diameter^2)/2. In vivo experiments were carried out approximately 13 ± 1 days after […] injection of tumor cells at the tumor volume of approximately 110 mm^3.
(§2) For the determination of ex vivo biodistribution of the radiotracers, control and KB tumor-bearing mice were injected intravenously with 8.42 ± 0.38 MBq of ^68Ga- or ^44Sc-labeled DO3AM-NI via the tail vein. Mice were euthanized with 5% isoflurane 90 min or 4 h after intravenous radiotracer injection. Three tissue samples were taken from the selected organs, and their weight and radioactivity were measured with a calibrated gamma counter (Perkin-Elmer Packard Cobra, Waltham, MA, USA). The radiotracer uptake was expressed as %ID/g tissue.

[2] = Ex vivo biodistribution in healthy control SCID mice; set-up: species or system CB17 SCID mice; conditions: mean ± SD
Protocol: Ex vivo biodistribution studies were carried out 90 min and 240 min after intravenous injection of ^44Sc- or ^68Ga-labeled DO3AM-NI, and the accumulated activities of the organs and tissues were determined using a gamma counter. By the quantitative analysis of the ex vivo data, significant differences were found between the %ID/g values when ^44Sc- and ^68Ga-labeled DO3AM-NI accumulations were compared. […] In contrast, e.g., [^18F]fluorine- [28], [^131I]iodine- [29], [^99mTc]technetium- [30] and [^64Cu]copper-labeled nitroimidazole-based probes, due to their chemical properties, were mainly metabolized via the liver, and the large abdominal accumulation impaired the evaluation of abdominal tumors in the PET images. The ^44Sc- and ^68Ga-labeled nitroimidazole derivatives had more favorable properties in terms of the reporting and evaluation of PET images and due to their rapid elimination through the urinary system.
as §2

[3] = Octanol/water partition coefficient (logP) of labeled complexes; assay type: physicochemical; conditions: 1-octanol/water, triplicates
Protocol: (§3) Subsequently, the octanol/water partition coefficient (logP) of the labeled complexes was determined to be −3.89 for [^68Ga]Ga(DO3AM-NI) and −2.59 for [^44Sc]Sc(DO3AM-NI). […] To assess the labeled compounds’ stability, the chelates were mixed with the solution of mouse plasma, Na2H2EDTA and oxalic acid, respectively. Aliquots were then taken at different time points (0, 60, 120 and 240 min) and injected into the radio-HPLC column, and the chromatograms were analyzed. After 240 min, the RCP of the samples was above 93% in all three cases.
A 10 µL volume of [^68Ga]Ga(DO3AM-NI) and [^44Sc]Sc(DO3AM-NI) solution (~5 MBq) was mixed with 500 µL of 1-octanol and 490 µL of water in an Eppendorf vial, respectively. The mixture was shaken with a vortex shaker (600 rpm) for 10 min and centrifuged (6000 rpm) for 5 min. Then, 100 µL from the octanol phase and 1 μL from the aqueous phase were pipetted into vials, and the aqueous aliquot was diluted to 100 µL with water in order to minimize the effects of sample geometry and the high difference of activity concentrations in the two solvents. The radioactivity of the fractions was determined with a gamma counter. The measurements were performed in triplicates for both labeled compounds.

[4] = In vivo PET/MRI imaging of healthy control SCID mice, quantitative SUV analysis; set-up: species or system CB17 SCID mice; conditions: 90 and 240 min after tracer injection
Protocol: The biodistribution of ^44Sc- and ^68Ga-labeled DO3AM-NI was investigated using healthy control and KB tumor-bearing SCID mice. PET/MRI imaging and ex vivo studies were performed 90 and 240 min after intravenous injection of ^44Sc- or ^68Ga-labeled DO3AM-NI. By the qualitative analysis of the PET/MRI images, the kidneys and the bladder with urine were clearly visualized using both radiotracers at each investigated time point; however, in other abdominal and thoracic organs, low uptake was observed.
For in vivo imaging studies, healthy control and KB tumor-bearing CB17 SCID mice were injected with 8.42 ± 0.38 MBq of ^68Ga- or ^44Sc-labeled DO3AM-NI via the lateral tail vein 13 ± 1 days after the inoculation of KB tumor cells. Then, 65 and 225 min after radiotracer injection, mice were anaesthetized by 3% isoflurane (Forane) with a dedicated small animal anesthesia device and whole-body T1-weighted MRI scans were performed (3D GRE EXT multi-FOV; TR/TE 15/2 ms; phase: 100; FOV 60 mm; NEX 2) using the preclinical nanoScan PET/MRI system with 1 Tesla magnetic field (Mediso Ltd., Hungary). […]
Quantitative radiotracer uptake was expressed in terms of standardized uptake value (SUV), SUV = [VOI activity (Bq/mL)]/[injected activity (Bq)/animal weight (g)], assuming a density of 1 g/mL. […]

KB tumors [5] = test: In vivo PET/MRI imaging of KB tumor-bearing mice, quantitative SUV analysis; set-up: species or system CB17 SCID mice; conditions: 240 min after injection
Protocol: The tumor-specific accumulation of [^44Sc]Sc(DO3AM-NI) and [^68Ga]Ga(DO3AM-NI) was investigated by PET/MRI imaging 90 and 240 min after radiotracer injection using KB tumor-bearing mice. The subcutaneously growing KB tumors were clearly visualized using [^44Sc]Sc(DO3AM-NI) 90 and 240 min post injection with relatively higher SUVmean and SUVmax values (SUVmean: 1.46 ± 0.32 and SUVmax: 2.35 ± 0.47 at 90 min and SUVmean: 0.67 ± 0.03 and SUVmax: 1.55 ± 0.28 at 240 min). Lower accumulation was found in the same KB tumors by using the ^68Ga-labeled molecule (SUVmean: 0.79 ± 0.10, SUVmax: 1.94 ± 0.40 at 90 min and SUVmean: 0.51 ± 0.09 and SUVmax: 1.23 ± 0.10 at 240 min); however, this difference between the radiotracers was not significant (Figure 4E). […] In contrast, no significant differences were found between the T/M SUV values of the two radiotracers 90 min post injection (Figure 4F).
as §1
For in vivo imaging studies, healthy control and KB tumor-bearing CB17 SCID mice were injected with 8.42 ± 0.38 MBq of ^68Ga- or ^44Sc-labeled DO3AM-NI via the lateral tail vein 13 ± 1 days after the inoculation of KB tumor cells. Then, 65 and 225 min after radiotracer injection, mice were anaesthetized by 3% isoflurane (Forane) with a dedicated small animal anesthesia device and whole-body T1-weighted MRI scans were performed (3D GRE EXT multi-FOV; TR/TE 15/2 ms; phase: 100; FOV 60 mm; NEX 2) using the preclinical nanoScan PET/MRI system with 1 Tesla magnetic field (Mediso Ltd., Hungary). After MRI imaging, 20 min static whole-body PET scans were acquired (90 min and 4 h after radiotracer injection).
Quantitative radiotracer uptake was expressed in terms of standardized uptake value (SUV), SUV = [VOI activity (Bq/mL)]/[injected activity (Bq)/animal weight (g)], assuming a density of 1 g/mL. Volumes of interest (VOI) were manually drawn around the edge of the organ or tumor activity using the InterView™ FUSION (Mediso Ltd., Hungary) image analysis software. Tumor-to-muscle (T/M) ratios were computed as the ratio between the activity in the tumor VOI and in the background (muscle) VOI. Skeletal muscles of the right shoulder area were used as background.

[6] = Stability of labeled complexes in mouse plasma, Na2H2EDTA and oxalic acid by radio-HPLC; assay type: in vitro ADME
Protocol: as §3
A 10 µL volume of [^68Ga]Ga(DO3AM-NI) and [^44Sc]Sc(DO3AM-NI) solution was added to the solution of 90 µL of mouse plasma, Na2H2EDTA (0.01 M) and oxalic acid (0.01 M), respectively. Samples were analyzed by radio-HPLC at the beginning and after 60, 120 and 240 min. The analytical conditions were the same as detailed for the quality control of the labeled compound.

T/M (tumor-to-muscle ratio) (KB tumors [1]; 90 min after injection): 6.28 ± 1.11
KB tumor uptake (KB tumors [1]; 90 min after injection): 0.62 ± 0.10 %ID/g
T/M (tumor-to-muscle ratio) (KB tumors [1]; 240 min after injection): 7.51 ± 1.13
KB tumor uptake (KB tumors [1]; 240 min after injection): 0.46 ± 0.07 %ID/g
Blood uptake ([2]; 90 min after i.v. injection): 0.81 ± 0.22 %ID/g
Fat uptake ([2]; 90 min after i.v. injection): 0.13 ± 0.10 %ID/g
Heart uptake ([2]; 90 min after i.v. injection): 0.26 ± 0.06 %ID/g
Kidney uptake ([2]; 90 min after i.v. injection): 1.32 ± 0.47 %ID/g
Large intestine uptake ([2]; 90 min after i.v. injection): 0.20 ± 0.13 %ID/g
Liver uptake ([2]; 90 min after i.v. injection): 0.43 ± 0.11 %ID/g
Lung uptake ([2]; 90 min after i.v. injection): 0.49 ± 0.08 %ID/g
Muscle uptake ([2]; 90 min after i.v. injection): 0.10 ± 0.03 %ID/g
Small intestine uptake ([2]; 90 min after i.v. injection): 0.25 ± 0.10 %ID/g
Spleen uptake ([2]; 90 min after i.v. injection): 0.29 ± 0.14 %ID/g
Stomach uptake ([2]; 90 min after i.v. injection): 0.21 ± 0.04 %ID/g
Urine uptake ([2]; 90 min after i.v. injection): 65.94 ± 5.21 %ID/g
Blood uptake ([2]; 240 min after i.v. injection): 0.65 ± 0.11 %ID/g
Fat uptake ([2]; 240 min after i.v. injection): 0.12 ± 0.08 %ID/g
Heart uptake ([2]; 240 min after i.v. injection): 0.22 ± 0.04 %ID/g
Kidney uptake ([2]; 240 min after i.v. injection): 1.21 ± 0.17 %ID/g
Large intestine uptake ([2]; 240 min after i.v. injection): 0.15 ± 0.06 %ID/g
Liver uptake ([2]; 240 min after i.v. injection): 0.37 ± 0.10 %ID/g
Lung uptake ([2]; 240 min after i.v. injection): 0.46 ± 0.09 %ID/g
Muscle uptake ([2]; 240 min after i.v. injection): 0.06 ± 0.03 %ID/g
Small intestine uptake ([2]; 240 min after i.v. injection): 0.14 ± 0.04 %ID/g
Spleen uptake ([2]; 240 min after i.v. injection): 0.32 ± 0.18 %ID/g
Stomach uptake ([2]; 240 min after i.v. injection): 0.22 ± 0.06 %ID/g
Urine uptake ([2]; 240 min after i.v. injection): 17.08 ± 7.97 %ID/g
octanol/water partition coefficient (logP) [3]: −3.89
uptake (SUV) in liver, spleen, kidney, intestines, lung, heart and brain compared with [^44Sc]Sc(DO3AM-NI) [4]: significantly (p ≤ 0.01) higher
tumor-to-muscle ratio T/M SUVmax (KB tumors [5]): 41.72 ± 13.61
tumor-to-muscle ratio T/M SUVmean (KB tumors [5]): 85.66 ± 6.06
RCP after 240 min ([6]; Na2H2EDTA (0.01 M)): above 93%
RCP after 240 min ([6]; mouse plasma): above 93%
RCP after 240 min ([6]; oxalic acid (0.01 M)): above 93%
Structure (SMILES): O=C([O-])CN1CCN(CC(=O)[O-])CCN(CC(=O)NCCn2ccnc2[N+](=O)[O-])CCN(CC(=O)[O-])CC1.[68Ga+3] [[^68Ga]Ga(DO3AM-NI)]
